Assay results as given in paper PMC9124243 (Cell chemical biology, 2021).

Key:
[1] = target: Mtb DnaK oligomers and DnaK-GrpE complex (Mycobacterium tuberculosis, UniProt P9WMJ9, T175A); format: binding
[2] = target: full-length apo DnaK (DnaK^FL) (Mycobacterium tuberculosis, UniProt P9WMJ9, T175A); format: binding
[3] = target: Mtb DnaK Phe400Ala, Thr401Ala (Mycobacterium tuberculosis, UniProt P9WMJ9, F400A); format: binding
[4] = target: apo, ATP-bound or ADP-bound DnaK T175A (Mycobacterium tuberculosis, UniProt P9WMJ9, T175A)
Mtb DnaK mutants [5] = target: Mtb DnaK mutants (Mycobacterium tuberculosis, UniProt P9WMJ9); format: biochemical
Mtb DnaK mutants [6] = target: Mtb DnaK mutants (Mycobacterium tuberculosis, UniProt P9WMJ9, E514A); format: biochemical
Mtb DnaK mutants [7] = target: Mtb DnaK mutants (Mycobacterium tuberculosis, UniProt P9WMJ9, R127A); format: biochemical
DnaK^NBD = format: binding; conditions: ITC

CNC(=O)[C@H]1O[C@@H](n2cnc3c(NCc4cccc(I)c4)nc(Cl)nc32)[C@H](O)[C@@H]1O [MECA, 2Cl-IB-MECA]
DnaK-GrpE complex formation [1]: not affected
binding to DnaK alone [2]: does not bind to DnaK alone

FL-β-Ala-Asn-Arg-Leu-Leu-Leu-Thr-Gly-OH [FL-NR]
EC50 for Phe400Ala relative to WT [3]: ~ 40 fold

CCC[C@H](NC(=O)[C@@H]1[C@H]2CCC[C@H]2CN1C(=O)[C@@H](NC(=O)[C@@H](NC(=O)c1cnccn1)C1CCCCC1)C(C)(C)C)C(=O)C(=O)NC1CC1 [TP, Telaprevir]
oligomeric state of apo DnaK [1]: inhibited formation of dimers and higher order oligomers
cleavage of DnaK by proteinase K [4]: protects full-length DnaK from cleavage
stoichiometry TP: DnaK [2]: ~ 0.5
ATPase activity of DnaK lacking last ~110 residues (A513-K625) (Mtb DnaK mutants [5]): still disrupted ATPase activity
increase in the IC50 value compared to wild-type (Mtb DnaK mutants [6]): 1.4 fold
ATPase activity of DnaK Arg127Ala with excess TP (Mtb DnaK mutants [7]): tolerance to excess TP
interaction with DnaK^NBD (DnaK^NBD): no interaction
